Test results published in the supplement of paper PMC10307832.

Legend:
Test in all cases: relative viability (nuclei count vs DMSO), 5 days (fraction); higher = more cells survive
Tosedostat = compound: CC(C)C[C@@H](C(=O)N[C@H](C(=O)OC1CCCC1)c1ccccc1)[C@H](O)C(=O)NO [Tosedostat]
How it was run: (§1)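 Following overnight incubation at 37 °C, lung cancer cell lines in 1536-well plates were pinned with five library-drug doses (not always all listed) in √10 steps on vehicle-anchored plates. The cells then spent 5 days without medium change before a combined fix, permeabilisation and Hoechst stain, 4× imaging and MetaXpress nuclear counts. Viability is the treated-to-vehicle ratio of nuclei, taken as the median across plates. Only plates with control CV below 25% and at least one doubling passed.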

[1] = compound: CC1=NN=C(O1)C2=NN=C(C=C2)N3CCC(CC3)OC4=C(C=CC(=C4)F)Cl
How it was run: as §1

[2] = compound: CC1=NN=C(O1)C2=NN=C(C=C2)N3CCC(CC3)OC4=C(C=CC(=C4)F)Cl + Nc1nc2[nH]cc(CCc3ccc(C(=O)N[C@@H](CCC(=O)O)C(=O)O)cc3)c2c(=O)[nH]1 [Pemetrexed] (partner 0.2 µM)
How it was run: (§2)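 After 5 days of treatment, lung cancer cells in 1536-well plates were fixed and stained in a single step (final 0.05% Triton X-100, 1% formaldehyde, 1 ug/ml Hoechst) and their nuclei counted on 4× images. Treatment had been applied by pin tool the day after seeding as one drug alone or as a fixed anchor-drug dose with five library-drug doses (not always all listed) in √10 steps. Relative viability is the nuclei count of treated wells divided by that of vehicle wells, and values are medians of duplicate plates.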

Tosedostat + Alpelisib = compound: CC(C)C[C@@H](C(=O)N[C@H](C(=O)OC1CCCC1)c1ccccc1)[C@H](O)C(=O)NO [Tosedostat] + Cc1nc(NC(=O)N2CCC[C@H]2C(N)=O)sc1-c1ccnc(C(C)(C)C(F)(F)F)c1 [Alpelisib] (partner 2 µM)
How it was run: as §2

Cell Line	relative viability (Tosedostat; 0.02 µM)	relative viability (Tosedostat; 0.06325 µM)	relative viability (Tosedostat; 0.2 µM)	relative viability (Tosedostat; 0.6325 µM)	relative viability (Tosedostat; 2 µM)	relative viability ([1]; 0.253 µM)	relative viability ([1]; 0.8 µM)	relative viability ([1]; 2.53 µM)	relative viability ([1]; 8 µM)	relative viability ([2]; first compound 0.253 µM)	relative viability ([2]; first compound 0.8 µM)	relative viability ([2]; first compound 2.53 µM)	relative viability ([2]; first compound 8 µM)	relative viability (Tosedostat + Alpelisib; first compound 0.02 µM)	relative viability (Tosedostat + Alpelisib; first compound 0.06325 µM)	relative viability (Tosedostat + Alpelisib; first compound 0.2 µM)	relative viability (Tosedostat + Alpelisib; first compound 0.6325 µM)	relative viability (Tosedostat + Alpelisib; first compound 2 µM)
NCI-H1651	1.06	0.984	0.973	0.921	0.899	0.819	0.795	0.784	0.682	0.488	0.422	0.445	0.444	0.832	0.92	0.996	0.995	0.924
NCI-H1666	1	0.933	1.02	1.08	0.999	0.707	0.844	0.835	0.782	0.735	0.69	0.741	0.751	0.99	0.841	1.06	0.995	0.951
NCI-H1734	1.1	0.903	0.959	0.866	0.822	0.954	0.729	0.966	0.859	0.433	0.364	0.434	0.438	0.672	0.647	0.742	0.593	0.646
NCI-H1755	1	0.999	1.05	1	0.971	0.661	0.746	0.759	0.731	0.424	0.426	0.418	0.365	0.941	0.9	0.922	0.864	0.883
NCI-H1792	1.01	1.11	0.963	0.828	1.07	0.748	0.741	0.833	0.846	0.735	0.648	0.785	0.6	0.761	0.745	0.649	0.602	0.67
NCI-H1793	0.815	0.88	0.92	0.913	0.79	0.877	0.776	1.02	0.755	0.843	0.835	0.977	0.79	0.691	0.851	0.567	0.649	0.673
NCI-H1915	1.15	0.949	0.998	0.988	0.891	0.607	0.341	0.497	0.407	0.376	0.232	0.3	0.235	1.1	1.05	1.04	1.07	0.907
NCI-H1944	1.01	0.921	0.928	0.889	0.853	0.429	0.487	0.515	0.466	0.372	0.328	0.493	0.369	0.929	0.811	0.817	0.742	0.818
NCI-H1975	0.973	1	0.884	0.788	0.733	–	0.676	0.918	0.849	0.217	0.272	0.271	0.25	0.658	0.602	0.537	0.473	0.495
NCI-H1993	1	0.958	0.847	0.631	0.703	0.772	0.864	0.954	0.833	0.533	0.499	0.566	0.541	0.61	0.688	0.843	0.561	0.588
NCI-H2009	1.16	0.94	0.988	0.926	0.866	0.613	0.552	0.61	0.539	0.605	0.547	0.587	0.517	1.24	1.14	1.12	1.05	0.955
NCI-H2023	1.05	0.916	0.937	0.713	0.942	0.513	0.451	0.579	0.431	0.188	0.189	0.235	0.182	0.571	0.558	0.675	0.421	0.483
NCI-H2085	0.918	1.02	0.983	1.02	0.99	0.901	0.736	0.908	0.795	0.801	0.676	0.841	0.696	0.904	1.02	1.06	0.936	0.887
NCI-H2087	1.21	1.06	1.11	0.819	0.942	0.771	0.569	0.659	0.621	0.561	0.534	0.511	0.47	1.21	1.08	1.21	0.876	0.91
NCI-H2126	0.976	1.01	1.01	0.903	0.865	0.832	0.869	0.928	0.864	0.69	0.607	0.635	0.606	0.664	0.744	0.757	0.774	0.661
NCI-H2170	0.997	0.963	1.02	0.984	0.89	0.481	0.52	0.607	0.444	0.241	0.218	0.242	0.256	0.742	0.829	0.835	0.777	0.862
NCI-H2228	1.22	1.1	0.881	0.837	0.686	0.904	0.921	0.979	0.834	0.28	0.333	0.3	0.363	0.971	0.748	0.743	0.677	0.661
NCI-H2347	1.01	1.05	1.05	0.927	0.833	0.883	0.771	0.893	0.783	0.422	0.406	0.442	0.39	1.14	0.971	1.01	1.02	1.03
